Measurements taken from PMC7016952, “Characterization of the Menin-MLL Interaction as Therapeutic Cancer Target” (Cancers, 2020).
pIC50, pKd: −log10 of the molar value.

Legend:
MCF7 cells = test: RNA-seq after E2 stimulation, MCF7; assay type: cell-based, human
Procedure: (§1) Total RNA was isolated using RNeasy-Plus Mini kit (Qiagen, Hilden, Germany). RNA (1 μg) was reverse transcribed using SuperScript III First-Strand Synthesis SuperMix (Life Technologies) and the generated cDNA was analyzed with commercial primers (Supplementary Materials Table S1) by qRT-PCR using TaqMan Fast Advanced Master Mix (Life Technologies). For the RNA-seq study, ZR-75-1, BT474, PANC-1, MiaPaCa-2, 22RV1, JMSU-1, DLD-1, SW1463, LoVo and G401 cells were treated with 5 µM BAY-155 or DMSO for 48 h prior to RNA extraction. After 48 h of 5 µM BAY-155 or DMSO treatment, MCF7, VCaP and LNCaP cells were stimulated for further 12 h with 0.1 nM of E2 (ß-Estradiol) or 1 nM R1881, respectively. MCF7, VCaP and LNCaP cells were cultured in starvation medium (containing 5 µM BAY-155 or DMSO) 6 h before stimulation. RNA was isolated using RNeasy-Plus Mini kit (Qiagen). The purified RNA was used for library preparation (Illumina, San Diego, CA, USA. TruSeq Stranded mRNA Kit) and the generated libraries were sequenced (Illumina, HiSeq2500 HTv4, SR, dual-indexing, 50 cycles).
(§2) RNA-seq reads were aligned to hg38 using STAR aligner. Protein-coding genes with more than 10 reads in more than three samples were used for the analysis (total samples N = 86; genes N = 13,003). DESeq2 was used to find genes differentially expressed upon treatment by the menin inhibitor in each cell line compared to DMSO or hormonal treatment (for MCF-7, LNCaP and VCaP cell lines). […] GSEA analysis was run on the pre-ranked list based on logFC in prostate (VCaP and LNCaP) and breast (MCF7) cell lines. Data are available at GEO under accession number GSE136272.

menin = target: T1, menin (Homo sapiens, UniProt O00255); test: Isothermal Titration Calorimetry (ITC) on purified menin; assay type: binding
T1 construct: purified menin (1–615 with GST-tag cleaved as described above); GST (TEV cleavable) (N, cleaved yes); made in house; host or cells: E. coli BL21 (DE3)
T1 sequence (O00255 1-615 isoform O00255-1): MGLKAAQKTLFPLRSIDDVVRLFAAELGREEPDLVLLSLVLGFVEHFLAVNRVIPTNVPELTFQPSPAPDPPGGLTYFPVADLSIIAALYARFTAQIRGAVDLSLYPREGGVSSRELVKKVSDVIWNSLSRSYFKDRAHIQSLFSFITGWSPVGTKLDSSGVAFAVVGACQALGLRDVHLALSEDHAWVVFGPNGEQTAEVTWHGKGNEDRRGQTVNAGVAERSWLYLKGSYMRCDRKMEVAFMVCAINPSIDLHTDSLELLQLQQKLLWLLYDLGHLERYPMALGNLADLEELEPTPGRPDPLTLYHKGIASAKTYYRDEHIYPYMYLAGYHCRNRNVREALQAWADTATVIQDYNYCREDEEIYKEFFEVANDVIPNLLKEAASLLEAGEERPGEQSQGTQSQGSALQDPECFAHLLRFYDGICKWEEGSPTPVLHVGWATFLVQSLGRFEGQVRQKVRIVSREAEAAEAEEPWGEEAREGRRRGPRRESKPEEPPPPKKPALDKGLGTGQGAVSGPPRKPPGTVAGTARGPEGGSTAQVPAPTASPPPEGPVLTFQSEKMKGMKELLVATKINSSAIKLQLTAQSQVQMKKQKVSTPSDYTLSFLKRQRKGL
Procedure: Cloning of expression vectors for recombinant menin was performed as follows. […] Proteins were expressed in E. coli BL21 (DE3) following 0.1 mM IPTG induction at 17 °C overnight. For purification, cell pellets were resuspended in buffer A (50 mM Tris pH 7.5, 300 mM NaCl, 2 mM DTT). Cells were lysed using a high pressure Microfluidics apparatus and the cell debris pelleted by centrifugation. The supernatant was applied to a GST column (GE Healthcare, Chicago, IL, USA), washed with two column volumes of washing buffer A and eluted with Buffer B (Buffer A plus 15 mM reduced glutathione). If necessary, the purification tag was cleaved off with the addition of His-TEV protease (1:20 mass ratio) during overnight incubation in buffer A. His-TEV was removed by IMAC column rebinding and final protein purification of either GST-cleaved or uncleaved menin-1 was performed by size exclusion chromatography using a HiLoad 16/60 Superdex 200 (GE Healthcare) column in buffer C (Buffer A but 50 mM NACl).
The compound was dissolved in 100% DMSO to a concentration of 10 mM and subsequently diluted to a final concentration of 5 µM in ITC Buffer. Isothermal Titration Calorimetry (ITC) was performed at 25 °C in a Microcal PEAQ-ITC (Malvern Panalytical). […] Reference Power was set to 6 μcal/s. Data were collected on high feedback mode. Analysis was performed with a single binding site model in the Microcal PEAQ-ITC Analysis Software (Malvern Panalytical).

MV4;11 cells = test: Proliferation inhibition, MV4;11; assay type: cell-based, human; settings: MV4;11
ZR-75-1 cells = test: RNA-seq differential gene expression, ZR-75-1; assay type: cell-based; settings: ZR-75-1, 5 µM, 48 h
Procedure: as §1
RNA-seq reads were aligned to hg38 using STAR aligner. Protein-coding genes with more than 10 reads in more than three samples were used for the analysis (total samples N = 86; genes N = 13,003). […]

VCaP cells = test: RNA-seq after R1881 stimulation, VCaP; assay type: cell-based, human
Procedure: as §1, §2

VCaP xenograft = VCaP xenograft efficacy; assay type: in vivo, mice
Procedure: Tumor cells were injected subcutaneously into the flanks of 6- to 9-week old animals. Efficacy studies in xenograft models were performed at Bayer or EPO GmbH (Berlin-Buch, Germany) using NMRI nu/nu, SCID, BALB/c Nude female mice or SCID male mice (VCaP tumors). All animal studies were conducted in accordance with the animal welfare laws and were approved by the State Office for Health and Social Affairs Berlin (LAGeSo). Experiments were run under the animal license B3600a0007. Compound treatment started at a predefined tumor size or burden or at a predefined day after cell inoculation. BAY-155 was administered orally (p.o.) at various doses and regorafenib, tamoxifen and enzalutamide (resuspended in PEG400/H2O 6/4 or PEG400/EtOH 9/1) were used as control treatment for RKO, MCF7 and VCaP xenografts, respectively. Subcutaneous tumor volumes were determined by caliper measurement.

CYP 2C9 = CYP 2C9 (Homo sapiens, UniProt P11712); settings: cited from earlier work
[1] = cited from earlier work

CYP 2C9, sequence (P11712 whole entry): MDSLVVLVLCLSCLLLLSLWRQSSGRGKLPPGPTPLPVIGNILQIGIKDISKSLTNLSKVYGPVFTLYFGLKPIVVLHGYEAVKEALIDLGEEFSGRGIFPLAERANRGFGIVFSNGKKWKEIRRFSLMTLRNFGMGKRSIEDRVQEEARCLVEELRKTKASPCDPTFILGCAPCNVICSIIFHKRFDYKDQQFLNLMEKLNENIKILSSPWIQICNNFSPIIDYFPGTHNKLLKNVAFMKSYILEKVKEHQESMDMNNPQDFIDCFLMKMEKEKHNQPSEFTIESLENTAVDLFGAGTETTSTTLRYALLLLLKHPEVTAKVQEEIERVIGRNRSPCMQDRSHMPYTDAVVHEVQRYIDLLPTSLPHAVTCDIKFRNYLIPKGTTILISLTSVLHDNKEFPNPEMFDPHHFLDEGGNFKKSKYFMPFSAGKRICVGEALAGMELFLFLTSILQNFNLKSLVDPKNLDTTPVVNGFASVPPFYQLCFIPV

## Cc1c(CN2CCC3(CC2)CN(c2ncnc4sc(CC(F)(F)F)cc24)C3)ccc2c1cc(C#N)n2CC(N)=O [BAY-155]
MCF7 cells; MCF7
  GSEA of estradiol (E2) up- and down-regulated gene sets: slight reverse regulation
MCF7 cells; MCF7, 5 µM, E2
  E2 down-regulated genes significantly changed: 13 genes
  E2 up-regulated genes significantly changed: 26 genes
menin
  pKd: 7.12
menin; ITC
  stoichiometry factor N: 1.06
MV4;11 cells
  fold improved proliferation inhibition vs MI-503: 2.8 fold
ZR-75-1 cells
  number of differentially expressed genes: 10 genes
VCaP cells
  GSEA of androgen-regulated gene sets: significant reversal of androgen-induced gene expression changes
VCaP cells; 5 µM, R1881
  genes down-regulated by androgen stimulation that were elevated: 182 genes
  genes up-regulated by androgen stimulation that were repressed: 36 genes
VCaP xenograft
  tumor volume and tumor weight: no significant effects
CYP 2C9
  pIC50: < 4.70
[1]
  CLblood (metabolic stability in rat hepatocytes, as worded in text): 18.3 mL/min/kg
